The term inhibition denotes the percentage by which the read-out fell short of the control.

Active and inactive are the calls of the source. The rule behind the calls is not given here.

The subject of the first series is Erythrocyte. As to the kind of experiment: Protection against H2O2-induced oxidative stress in mouse RBC assessed as inhibition of hemolysis at 1 uM pretreated for 30 mins followed by H2O2 addition and measured after 5 hrs by malondialdehyde indicator based assay relative to control. It counts as functional.
On to `COc1c(O)c(CN(C)C)c2oc3c(CN(C)C)c(O)c(CC=C(C)C)c(O)c3c(=O)c2c1CC=C(C)C`, for which the inhibition at 1 µM is 41%.
As to `COc1c(O)c(CN2CCCCCC2)c2oc3c(CN4CCCCCC4)c(O)c(CC=C(C)C)c(O)c3c(=O)c2c1CC=C(C)C`, the inhibition at 1 µM turned out to be 35%.
Consider `CC(C)=CCc1c(O)cc2oc3cc(O)c(O)c(CC=C(C)C)c3c(=O)c2c1O`, for which the inhibition at 1 µM came out at 15.1%.
Regarding `CC(C)=CCc1c(O)c(CN2CCOCC2)c2oc3c(CN4CCOCC4)c(O)c(O)c(CC=C(C)C)c3c(=O)c2c1O`, the inhibition at 1 µM was determined as 6.9%.
In the case of `COc1c(O)cc2oc3c(CN4CCCCCC4)c(O)c(CC=C(C)C)c(O)c3c(=O)c2c1CC=C(C)C`, the inhibition at 1 µM is 27.6%.
Still for that read-out and setting: under `COc1c(O)cc2oc3cc(O)c(CC=C(C)C)c(O)c3c(=O)c2c1CC=C(C)C` [MANGOSTIN] stands 60.2 to 60.9%.
The same measure, in the same setting: the figure for `CCCCNCc1c(O)c(CC=C(C)C)c(O)c2c(=O)c3c(CC=C(C)C)c(OC)c(O)cc3oc12` is 46.4%; for `CCCCNCc1c(O)c(CC=C(C)C)c(O)c2c(=O)c3c(CC=C(C)C)c(OC)c(O)c(CN(C)C)c3oc12` it is 36.8%.

A further series relates to Erythrocyte. As to the kind of experiment: Hemolytic activity against mouse RBC at 30 uM measured after 5 hrs by malondialdehyde indicator based assay. Type of series: ADME, cell-based.
Consider `COc1c(O)c(CN(C)C)c2oc3c(CN(C)C)c(O)c(CC=C(C)C)c(O)c3c(=O)c2c1CC=C(C)C`, for which the Activity result was “Toxic”.
With `COc1c(O)c(CN2CCCCCC2)c2oc3c(CN4CCCCCC4)c(O)c(CC=C(C)C)c(O)c3c(=O)c2c1CC=C(C)C`, the Activity entry is reported as “Non-Toxic”.
For `CC(C)=CCc1c(O)cc2oc3cc(O)c(O)c(CC=C(C)C)c3c(=O)c2c1O`, the Activity entry is listed as “Non-Toxic”.
For `CC(C)=CCc1c(O)c(CN2CCOCC2)c2oc3c(CN4CCOCC4)c(O)c(O)c(CC=C(C)C)c3c(=O)c2c1O`, the Activity result is reported as “Non-Toxic”.
`COc1c(O)cc2oc3c(CN4CCCCCC4)c(O)c(CC=C(C)C)c(O)c3c(=O)c2c1CC=C(C)C`: the Activity result is recorded as “Non-Toxic”.
For `COc1c(O)cc2oc3cc(O)c(CC=C(C)C)c(O)c3c(=O)c2c1CC=C(C)C` [MANGOSTIN], the Activity result is listed as “Non-Toxic”.
In the case of `CCCCNCc1c(O)c(CC=C(C)C)c(O)c2c(=O)c3c(CC=C(C)C)c(OC)c(O)cc3oc12`, the Activity result is on record as “Non-Toxic”.
As to `CCCCNCc1c(O)c(CC=C(C)C)c(O)c2c(=O)c3c(CC=C(C)C)c(OC)c(O)c(CN(C)C)c3oc12`, the Activity entry is “Non-Toxic”.

Another series relates to Erythrocyte. The series can be described thus: Antioxidant activity against H2O2-induced oxidative stress in mouse RBC assessed as inhibition of LPO accumulation at 10 uM pretreated for 30 mins followed by H2O2 addition and measured after 4 hrs by TBARS assay relative to control. It counts as functional.
In the case of `COc1c(O)c(CN(C)C)c2oc3c(CN(C)C)c(O)c(CC=C(C)C)c(O)c3c(=O)c2c1CC=C(C)C`, the inhibition at 10 µM was found to be 58.2%.
Turning to `COc1c(O)c(CN2CCCCCC2)c2oc3c(CN4CCCCCC4)c(O)c(CC=C(C)C)c(O)c3c(=O)c2c1CC=C(C)C`, the inhibition at 10 µM is 54.1%.
Same read-out and setting: the figure for `CC(C)=CCc1c(O)cc2oc3cc(O)c(O)c(CC=C(C)C)c3c(=O)c2c1O` is 68.1%.
With `CC(C)=CCc1c(O)c(CN2CCOCC2)c2oc3c(CN4CCOCC4)c(O)c(O)c(CC=C(C)C)c3c(=O)c2c1O`, the inhibition at 10 µM was 68.8%.
Turning to `COc1c(O)cc2oc3c(CN4CCCCCC4)c(O)c(CC=C(C)C)c(O)c3c(=O)c2c1CC=C(C)C`, the inhibition at 10 µM was 48.9%.
As to `COc1c(O)cc2oc3cc(O)c(CC=C(C)C)c(O)c3c(=O)c2c1CC=C(C)C` [MANGOSTIN], the inhibition at 10 µM fell in the range of 59.8 to 67%.
In the case of `CCCCNCc1c(O)c(CC=C(C)C)c(O)c2c(=O)c3c(CC=C(C)C)c(OC)c(O)cc3oc12`, the inhibition at 10 µM stood at 70.5%.
Same read-out and setting: the figure for `CCCCNCc1c(O)c(CC=C(C)C)c(O)c2c(=O)c3c(CC=C(C)C)c(OC)c(O)c(CN(C)C)c3oc12` is 61.5%.

In a further series the test system is Erythrocyte. The series can be described thus: Protection against H2O2-induced oxidative stress in mouse RBC assessed as inhibition of hemolysis at 0.05 uM pretreated for 30 mins followed by H2O2 addition and measured after 5 hrs by malondialdehyde indicator based assay relative to control. It counts as functional.
Take `CC(C)=CCc1c(O)cc2oc3cc(O)c(O)c(CC=C(C)C)c3c(=O)c2c1O`: the inhibition at 0.05 µM came to 85.9%.
The same measure, in the same setting: the figure for `CC(C)=CCc1c(O)c(CN2CCOCC2)c2oc3c(CN4CCOCC4)c(O)c(O)c(CC=C(C)C)c3c(=O)c2c1O` is 79.6%.

For a further series, the system named is Erythrocyte. As to the kind of experiment: Antioxidant activity against H2O2-induced oxidative stress in mouse RBC assessed as inhibition of LPO accumulation at 0.05 uM pretreated for 30 mins followed by H2O2 addition and measured after 4 hrs by TBARS assay relative to control. It counts as functional.
Regarding `CC(C)=CCc1c(O)cc2oc3cc(O)c(O)c(CC=C(C)C)c3c(=O)c2c1O`, the inhibition at 0.05 µM was 72.8%.
As to `CC(C)=CCc1c(O)c(CN2CCOCC2)c2oc3c(CN4CCOCC4)c(O)c(O)c(CC=C(C)C)c3c(=O)c2c1O`, the inhibition at 0.05 µM came to 78.5%.

Test system in the next series: not listed separately
The series can be described thus: Antioxidant activity assessed as DPPH radical scavenging activity at 10 to 100 uM incubated in dark for 30 mins. Type of series: functional. Background: Loss of DPPH colour is used to gauge radical scavenging.
For `COc1c(O)c(CN(C)C)c2oc3c(CN(C)C)c(O)c(CC=C(C)C)c(O)c3c(=O)c2c1CC=C(C)C`, the result was Active.
Take `COc1c(O)c(CN2CCCCCC2)c2oc3c(CN4CCCCCC4)c(O)c(CC=C(C)C)c(O)c3c(=O)c2c1CC=C(C)C`: the outcome was Active.
As to `CC(C)=CCc1c(O)cc2oc3cc(O)c(O)c(CC=C(C)C)c3c(=O)c2c1O`, the outcome was Active.
As for `CC(C)=CCc1c(O)c(CN2CCOCC2)c2oc3c(CN4CCOCC4)c(O)c(O)c(CC=C(C)C)c3c(=O)c2c1O`, the result was Active.
For `COc1c(O)cc2oc3c(CN4CCCCCC4)c(O)c(CC=C(C)C)c(O)c3c(=O)c2c1CC=C(C)C`, the outcome was Active.
Still for that read-out and setting: the entry for `COc1c(O)cc2oc3cc(O)c(CC=C(C)C)c(O)c3c(=O)c2c1CC=C(C)C` [MANGOSTIN] is “Active”; for `CCCCNCc1c(O)c(CC=C(C)C)c(O)c2c(=O)c3c(CC=C(C)C)c(OC)c(O)cc3oc12` it is “Active”.
In the case of `CCCCNCc1c(O)c(CC=C(C)C)c(O)c2c(=O)c3c(CC=C(C)C)c(OC)c(O)c(CN(C)C)c3oc12`, the result was Active.

In another series the test system is Erythrocyte. As to the kind of experiment: Antioxidant activity against H2O2-induced oxidative stress in mouse RBC assessed as inhibition of LPO accumulation at 1 uM pretreated for 30 mins followed by H2O2 addition and measured after 4 hrs by TBARS assay relative to control. Type of series: functional.
In the case of `COc1c(O)c(CN(C)C)c2oc3c(CN(C)C)c(O)c(CC=C(C)C)c(O)c3c(=O)c2c1CC=C(C)C`, the inhibition at 1 µM turned out to be 56.1%.
Consider `COc1c(O)c(CN2CCCCCC2)c2oc3c(CN4CCCCCC4)c(O)c(CC=C(C)C)c(O)c3c(=O)c2c1CC=C(C)C`, for which the inhibition at 1 µM was 34.8%.
On the same count and under the same terms, under `COc1c(O)cc2oc3c(CN4CCCCCC4)c(O)c(CC=C(C)C)c(O)c3c(=O)c2c1CC=C(C)C` stands 51.2%; under `COc1c(O)cc2oc3cc(O)c(CC=C(C)C)c(O)c3c(=O)c2c1CC=C(C)C` [MANGOSTIN], 54.2 to 66.9%; under `CCCCNCc1c(O)c(CC=C(C)C)c(O)c2c(=O)c3c(CC=C(C)C)c(OC)c(O)cc3oc12`, 60.5%.
On to `CCCCNCc1c(O)c(CC=C(C)C)c(O)c2c(=O)c3c(CC=C(C)C)c(OC)c(O)c(CN(C)C)c3oc12`, for which the inhibition at 1 µM was 53.5%.

The next series deals with Erythrocyte. As to the kind of experiment: Protection against H2O2-induced oxidative stress in mouse RBC assessed as inhibition of hemolysis at 10 uM pretreated for 30 mins followed by H2O2 addition and measured after 5 hrs by malondialdehyde indicator based assay relative to control. It counts as functional.
For `COc1c(O)c(CN(C)C)c2oc3c(CN(C)C)c(O)c(CC=C(C)C)c(O)c3c(=O)c2c1CC=C(C)C`, the inhibition at 10 µM was determined as 66.3%.
`COc1c(O)c(CN2CCCCCC2)c2oc3c(CN4CCCCCC4)c(O)c(CC=C(C)C)c(O)c3c(=O)c2c1CC=C(C)C`: the inhibition at 10 µM amounted to 19%.
With `COc1c(O)cc2oc3c(CN4CCCCCC4)c(O)c(CC=C(C)C)c(O)c3c(=O)c2c1CC=C(C)C`, the inhibition at 10 µM came out at 10.8%.
Take `COc1c(O)cc2oc3cc(O)c(CC=C(C)C)c(O)c3c(=O)c2c1CC=C(C)C` [MANGOSTIN]: the inhibition at 10 µM lay in the range of 44.4 to 46.3%.
The same measure, in the same setting: the figure for `CCCCNCc1c(O)c(CC=C(C)C)c(O)c2c(=O)c3c(CC=C(C)C)c(OC)c(O)cc3oc12` is 31.9%; for `CCCCNCc1c(O)c(CC=C(C)C)c(O)c2c(=O)c3c(CC=C(C)C)c(OC)c(O)c(CN(C)C)c3oc12` it is 50%.

Test system in a further series: not listed separately
The series can be described thus: Metal chelating activity assessed as compound-Fe2+ complex formation at 10 uM after 10 mins by FerrozineTM iron reagent based assay.
Take `CC(C)=CCc1c(O)c(CN2CCOCC2)c2oc3c(CN4CCOCC4)c(O)c(O)c(CC=C(C)C)c3c(=O)c2c1O`: the outcome was Active.
Same read-out and setting: under `COc1c(O)cc2oc3c(CN4CCCCCC4)c(O)c(CC=C(C)C)c(O)c3c(=O)c2c1CC=C(C)C` stands “Active”.

Values taken from ChEMBL document CHEMBL4152226, “Novel Mannich bases of α- and γ-mangostins: Synthesis and evaluation of antioxidant and membrane-protective activity” (Eur J Med Chem, 2018).
